How the values were obtained:
cocklebur = assay: Test B pre-/postemergence herbicide test; assay type: in vivo, Xanthium strumarium; conditions: for Cocklebur plant response rating: postemergence, visual rating, scale 0 (no effect) to 100 (complete control)
Outline: (§1)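 Seeds were planted and treated preemergence with compounds formulated in a non-phytotoxic solvent mixture containing surfactant, while plants at the 1- to 4-leaf stage (2 to 18 cm) received postemergence sprays. Flooded paddy plants were grown to the 2-leaf stage. After 13 to 15 days in a greenhouse, injury was visually rated 0–100 against untreated controls.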

wheat = assay: Test B postemergence herbicide test; assay type: in vivo, Triticum aestivum; parameters: key to Wheat plant response rating: 0 = no effect, 100 = complete control; conditions: postemergence, visual rating, scale 0 (no effect) to 100 (complete control)
Outline: (§2)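 Scale 0–100: zero equals no visible effect, 100 complete control, judged by eye relative to controls. Timing: 13 to 15 days in greenhouse post-treatment. Growth stage at spraying: two leaves (paddy) or one to four leaves, 2–18 cm (postemergence).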

[1] = test system: small flower umbrella sedge; assay: Test B flooded paddy test; assay type: in vivo, Cyperus difformis; conditions: 1000 g ai/ha, visual rating, scale 0 to 100 (0 no effect, 100 complete control), 13 to 15 days
Outline: (§3)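 Postemergence plants were sprayed with formulated test chemicals at 2 to 18 cm height (1- to 4-leaf stage); paddy species were grown to the 2-leaf stage. After 13 to 15 days in a greenhouse, injury was rated visually against untreated controls on a 0–100 scale (0 = no effect, 100 = complete control).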

pigweed = assay: Test B pre-/postemergence herbicide test; assay type: in vivo, Amaranthus retroflexus; conditions: for Pigweed plant response rating: postemergence, visual rating, scale 0 (no effect) to 100 (complete control)
Outline: (§4)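 Formulation: non-phytotoxic solvent mix with surfactant. Timing: preemergence on seed and postemergence on 2–18 cm plants, applied concurrently. Readout after 13–15 d greenhouse: visual 0–100 control rating against controls.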

barnyardgrass [2] = assay: Test B flooded paddy test; assay type: in vivo, Echinochloa crus-galli; conditions: 1000 g ai/ha, visual rating, scale 0 to 100 (0 no effect, 100 complete control), 13 to 15 days
Outline: as §3

giant foxtail = assay: Test B pre-/postemergence herbicide test; assay type: in vivo, Setaria faberi; conditions: for Foxtail, Giant plant response rating: postemergence, visual rating, scale 0 (no effect) to 100 (complete control)
Outline: as §4

Surinam grass = assay: Test B pre-/postemergence herbicide test; assay type: in vivo, Urochloa decumbens; conditions: for Surinam Grass plant response rating: postemergence, visual rating, scale 0 (no effect) to 100 (complete control)
Outline: as §4

wild oat = assay: Test B postemergence herbicide test; assay type: in vivo, Avena fatua; conditions: postemergence, visual rating, scale 0 (no effect) to 100 (complete control)
Outline: as §2

ducksalad = assay: Test B flooded paddy test; assay type: in vivo, Heteranthera limosa; conditions: 1000 g ai/ha, visual rating, scale 0 to 100 (0 no effect, 100 complete control), 13 to 15 days
Outline: as §3

blackgrass = assay: Test B postemergence herbicide test; assay type: in vivo, Alopecurus myosuroides; conditions: postemergence, visual rating, scale 0 (no effect) to 100 (complete control)
Outline: as §3

large crabgrass = assay: Test B pre-/postemergence herbicide test; assay type: in vivo, Digitaria sanguinalis; conditions: for Crabgrass, Large plant response rating: postemergence, visual rating, scale 0 (no effect) to 100 (complete control)
Outline: as §4

corn = assay: Test B pre-/postemergence herbicide test; assay type: in vivo, Zea mays; conditions: for Corn plant response rating: postemergence, visual rating, scale 0 (no effect) to 100 (complete control)
Outline: as §4

morningglory = assay: Test B pre-/postemergence herbicide test; assay type: in vivo, Ipomoea coccinea; conditions: for Morningglory plant response rating: postemergence, visual rating, scale 0 (no effect) to 100 (complete control)
Outline: as §1

rice [3] = assay: Test B flooded paddy test; assay type: in vivo, Oryza sativa; conditions: 1000 g ai/ha, visual rating, scale 0 to 100 (0 no effect, 100 complete control), 13 to 15 days
Outline: as §2

velvetleaf = assay: Test B pre-/postemergence herbicide test; assay type: in vivo, Abutilon theophrasti; conditions: for Velvetleaf plant response rating: postemergence, visual rating, scale 0 (no effect) to 100 (complete control)
Outline: as §4

lambsquarters = assay: Test B pre-/postemergence herbicide test; assay type: in vivo, Chenopodium album; conditions: for Lambsquarters plant response rating: postemergence, visual rating, scale 0 (no effect) to 100 (complete control)
Outline: as §4

rice [4] = assay: Test B pre-/postemergence herbicide test; assay type: in vivo, Oryza sativa; conditions: preemergence
Outline: as §4

barnyardgrass [5] = assay: Test B pre-/postemergence herbicide test; assay type: in vivo, Echinochloa crus-galli; conditions: for Barnyardgrass plant response rating: postemergence, visual rating, scale 0 (no effect) to 100 (complete control)
Outline: as §1

[6] = 125 g ai/ha, 0 = no effect, 100 = complete control, preemergence
[7] = 500 g ai/ha, visual rating 0-100, 0 no effect, 100 complete control, preemergence

`CCNC(=O)c1cccc(NC(=O)c2nn(C(C)(C)C)cc2C(F)(F)F)c1` [Compound 170] was tested, and the “Cocklebur plant response rating (0 to 100 scale)” value (cocklebur; [6]) was 0, the “Plant response rating, Cocklebur” value (cocklebur; [7]) was 0 and the “Cocklebur plant response rating” value (cocklebur; 125 g ai/ha) was 0. The “Cocklebur plant response rating” value (cocklebur; 500 g ai/ha) was 0, the “Wheat plant response rating” value (wheat; 125 g ai/ha) was 0 and the “Wheat plant response rating” value (wheat; 500 g ai/ha) was 0. The “Sedge, Umbrella plant response rating” value [1] was 20, the “Pigweed plant response rating (0 to 100 scale)” value (pigweed; [6]) was 0 and the “Plant response rating, Pigweed” value (pigweed; [7]) was 90. The “Pigweed plant response rating” value (pigweed; 125 g ai/ha) was 30, the “Pigweed plant response rating” value (pigweed; 500 g ai/ha) was 50 and the “Barnyardgrass plant response rating” value (barnyardgrass [2]) was 10. The “Foxtail, Giant plant response rating (0 to 100 scale)” value (giant foxtail; [6]) was 0, the “Plant response rating, Foxtail, Giant” value (giant foxtail; [7]) was 20 and the “Foxtail, Giant plant response rating” value (giant foxtail; 125 g ai/ha) was 0. The “Foxtail, Giant plant response rating” value (giant foxtail; 500 g ai/ha) was 10, the “Surinam Grass plant response rating (0 to 100 scale)” value (Surinam grass; [6]) was 0 and the “Plant response rating, Surinam Grass” value (Surinam grass; [7]) was 30. For the same molecule, the “Surinam Grass plant response rating” value (Surinam grass; 125 g ai/ha) was 10, the “Surinam Grass plant response rating” value (Surinam grass; 500 g ai/ha) was 10 and the “Oat, Wild plant response rating” value (wild oat; 125 g ai/ha) was 10. For the same molecule, the “Oat, Wild plant response rating” value (wild oat; 500 g ai/ha) was 10, the “Ducksalad plant response rating” value (ducksalad) was 0 and the “Blackgrass plant response rating” value (blackgrass; 125 g ai/ha) was 0. The “Blackgrass plant response rating” value (blackgrass; 500 g ai/ha) was 0, the “Crabgrass, Large plant response rating (0 to 100 scale)” value (large crabgrass; [6]) was 20 and the “Plant response rating, Crabgrass, Large” value (large crabgrass; [7]) was 80. For the same molecule, the “Crabgrass, Large plant response rating” value (large crabgrass; 125 g ai/ha) was 10, the “Crabgrass, Large plant response rating” value (large crabgrass; 500 g ai/ha) was 10 and the “Corn plant response rating (0 to 100 scale)” value (corn; [6]) was 0. For the same molecule, the “Plant response rating, Corn” value (corn; [7]) was 0, the “Corn plant response rating” value (corn; 125 g ai/ha) was 0 and the “Corn plant response rating” value (corn; 500 g ai/ha) was 10. For the same molecule, the “Morningglory plant response rating (0 to 100 scale)” value (morningglory; [6]) was 0, the “Plant response rating, Morningglory” value (morningglory; [7]) was 10 and the “Morningglory plant response rating” value (morningglory; 125 g ai/ha) was 30. For the same molecule, the “Morningglory plant response rating” value (morningglory; 500 g ai/ha) was 80, the “Rice plant response rating” value (rice [3]) was 20 and the “Velvetleaf plant response rating (0 to 100 scale)” value (velvetleaf; [6]) was 0. For the same molecule, the “Plant response rating, Velvetleaf” value (velvetleaf; [7]) was 20, the “Velvetleaf plant response rating” value (velvetleaf; 125 g ai/ha) was 10 and the “Velvetleaf plant response rating” value (velvetleaf; 500 g ai/ha) was 20. For the same molecule, the “Lambsquarters plant response rating (0 to 100 scale)” value (lambsquarters; [6]) was 0, the “Plant response rating, Lambsquarters” value (lambsquarters; [7]) was 80 and the “Lambsquarters plant response rating” value (lambsquarters; 125 g ai/ha) was 60. The “Lambsquarters plant response rating” value (lambsquarters; 500 g ai/ha) was 70, the “Rice plant response rating (0 to 100 scale)” value (rice [4]; 125 g ai/ha, 0 = no effect, 100 = complete control) was 0 and the “Plant response rating, Rice” value (rice [4]; 500 g ai/ha, visual rating 0-100, 0 no effect, 100 complete control) was 0. The “Barnyardgrass plant response rating (0 to 100 scale)” value (barnyardgrass [5]; [6]) was 0, the “Plant response rating, Barnyardgrass” value (barnyardgrass [5]; [7]) was 30 and the “Barnyardgrass plant response rating” value (barnyardgrass [5]; 125 g ai/ha) was 0. For the same molecule, the “Barnyardgrass plant response rating” value (barnyardgrass [5]; 500 g ai/ha) was 10.
